{
  "source": "paper PMC9166630",
  "about": "“SAR Probing of KX2-391 Provided Analogues With Juxtaposed Activity Profile Against Major Oncogenic Kinases” (Frontiers in Oncology, 2022)",
  "key": {"CREB": {"system": "CREB", "test": "Human phosphokinase array, CREB", "assay_type": "cell-based", "source_text": "(§1) The kinome tree representation (Figure 7C), which was generated by raising the Kinase Score cut-off to >1.2, confirmed that, unlike tirbanibulin and our prototype molecule KX1-136, 4e’s effects were more observable on kinases other than the Src family such as the Eph and TEC families. […] Therefore, we screened compound 4e using the Human Phospho-Kinase Array® kit from R&D systems (Minneapolis, MN, USA). In this system, 35 phosphorylated YK and serine-threonine kinase (STK) enzymes in the untreated (control) and treated (test) HL60 cell lysates were captured on nitrocellulose membrane, pre-spotted with phosphokinase-specific capture antibodies, and then visualized by detection antibody cocktails (Figure 8). The difference in the spot intensity between untreated (control) and treated cells is proportional to change in the amount of the phosphorylated protein induced by 4e.\n(§2) The phosphorylation profile of 48 kinases was performed using the Proteome Profiler Human Phospho-Kinase Antibody Array Kit by R&D Systems (Minneapolis, MN, USA) according to the protocol. Briefly, the total cellular protein was extracted using the Lysis buffer and was quantified using Bio-Rad DC Protein Assay kit (Hercules, CA, USA). Nitrocellulose membrane set (A&B), pre-spotted with kinase-specific capture antibodies, were first blocked with Array Buffer-1 at RT for 30 min on a rocking platform shaker. Approximately 600 µg of protein concentrate was diluted in the buffer provided and was added onto the membrane set, and the membranes were incubated overnight at 4°C in an 8-well plate. Subsequently, membranes were washed with Wash Buffer and incubated with appropriate Detection Antibody cocktails for 2 h at RT. Streptavadin-HRP (1:2000) was added onto membranes and incubated for 30 min at RT. Membranes were washed, and Chemiluminescent Detection Reagents 1&2 were applied in equal volumes for detection. The signals were detected on C-DiGit®Blot Scanner (LI-COR, Odyssey Imaging Systems, Lincoln, Nebraska, USA) using Image Studio 5.0 software."}, "Etk/BMX": {"system": "Etk/BMX", "test": "PamChip tyrosine kinase microarray, Etk/BMX", "assay_type": "biochemical, human", "conditions": "4e 0.1 µM, HL60 lysate", "method": "(§3) The changes in kinase activities induced by treatment with 4e were monitored within the HL60 cell lines using PamGene’s (Hertogenbosch, Netherlands) PamChip® peptide microarray profiler, which quantifies the activities of 144 tyrosine kinases (YK) ([29], [30]) (Figure 7). Results are provided as a log fold change (LFC) heatmap and Mean Kinase Statistic. From the LFC it is apparent that compound 4e, at a concentration of 0.1 µM, induced sizable changes to the activity of several kinases within the cell signaling YK profile (Figure 7A).\n(§4) An Upstream Kinase tool was used to generate a putative list of kinases responsible for phosphorylating the phospho-sites on the PamChip (Figure 7B) ([31]). It is an interpretation and is highly dependent on the contents of the underlying phosphorylation databases. A Kinase Score was used for ranking kinases based on their significance and specificity in terms of the set of peptides used for the corresponding kinase. Kinase Statistics indicates the overall change of the peptide set that represents the kinase. Kinase statistics value <0 indicates lower kinase activity in the compound spiked lysate and vice versa ([32], [33]). Table 5 lists the 20 most changed kinases within treated HL60 cell lysates by 0.1 μM 4e, ranked according to their Kinase Score.\n(§5) The compound 4e was spiked into HL60 cell lysate at different concentrations (0.001, 0.01, 0.1, 1, 10 and 50 μM). In addition, DMSO was also spiked in HL60 lysate at low concentration (2% v/v) as control. Samples were profiled on PamGene’s Tyrosine Kinase (PTK) arrays in technical replicates, covering a total of 196 phosphorylation sites. Frozen HL60 cultured cell pellet was sent to PamGene. At PamGene, cells were lysed using a lysis buffer and proteases inhibitors cocktail. Protein concentration was measured using standard Bradford assay as per PamGene SOPs. These lysates were further used for generating the PTK activity profiles. For spiking, 4e was received as powder form and dissolved in DMSO at PamGene facility followed by storing at -20°C in small aliquots. PamGene used its in-house bioinformatics toolbox in combination with other methods to generate hypotheses of signaling pathways."}, "AKT 1/2/3": {"system": "AKT 1/2/3", "test": "Human phosphokinase array, AKT 1/2/3", "assay_type": "cell-based", "source_text": "as §1, §2"}, "TEC": {"molecular_target": "T1, TEC (Homo sapiens, UniProt P42680)", "T1 construct": "endogenous in cells; host or cells: HL60 lysate", "T1 sequence (P42680 1-631)": "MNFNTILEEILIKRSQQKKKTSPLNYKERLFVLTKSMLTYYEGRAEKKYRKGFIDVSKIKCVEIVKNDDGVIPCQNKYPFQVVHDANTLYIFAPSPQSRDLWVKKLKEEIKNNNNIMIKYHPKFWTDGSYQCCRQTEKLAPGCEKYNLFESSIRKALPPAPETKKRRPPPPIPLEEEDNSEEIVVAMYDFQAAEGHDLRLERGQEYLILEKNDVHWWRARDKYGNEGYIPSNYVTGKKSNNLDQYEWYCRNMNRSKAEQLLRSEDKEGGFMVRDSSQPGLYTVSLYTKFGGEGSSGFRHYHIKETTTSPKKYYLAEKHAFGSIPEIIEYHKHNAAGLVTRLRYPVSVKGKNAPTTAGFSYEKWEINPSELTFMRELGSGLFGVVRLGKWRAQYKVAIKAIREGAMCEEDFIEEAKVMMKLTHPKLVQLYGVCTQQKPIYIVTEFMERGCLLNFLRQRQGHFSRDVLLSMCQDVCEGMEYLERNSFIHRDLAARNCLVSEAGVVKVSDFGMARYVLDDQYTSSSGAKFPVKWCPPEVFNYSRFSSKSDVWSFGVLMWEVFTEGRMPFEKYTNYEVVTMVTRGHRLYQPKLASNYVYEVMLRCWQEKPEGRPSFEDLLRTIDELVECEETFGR", "test": "PamChip tyrosine kinase microarray, TEC", "assay_type": "biochemical", "conditions": "4e 0.1 µM, HL60 lysate", "method": "as §3, §4, §5"}, "Blk": {"system": "Blk", "test": "PamChip tyrosine kinase microarray, Blk", "assay_type": "biochemical, human", "conditions": "4e 0.1 µM, HL60 lysate", "method": "as §3, §4\nThe two multiple-kinase tests (PamChip and Phosphokinase Profiler) provided strong evidence of very minor involvement of Src in the cellular activities of 4e. However, the question must be raised about the effect of the 4e on other SRC family kinase (SFK). To address this point, we must highlight that both R&D phosphokinase profiler and PamChip feature Yes, Fgr, Lyn, Lck and Src while Fyn, Hck, Blk and Frk activities are tested in the PamChip only. The signals of SFKs in the R&D Phosphokinase Profiler were too weak to detect in both untreated (control) and 4e-treated HL60 cells. In PamChip assay, most of SFK’s were not ranked in the top 20 affected kinases (Table 5). In addition, their Specificity Score were very low (Table 6) indicating their marginal importance to the cell killing activities of 4e. Fgr kinase which ranked 7th in the list (Table 5) was the only SFK member that seems to be affected by the compound, albeit with low Specificity Score (1.03).\nThe compound 4e was spiked into HL60 cell lysate at different concentrations (0.001, 0.01, 0.1, 1, 10 and 50 μM). In addition, DMSO was also spiked in HL60 lysate at low concentration (2% v/v) as control. Samples were profiled on PamGene’s Tyrosine Kinase (PTK) arrays in technical replicates, covering a total of 196 phosphorylation sites. Frozen HL60 cultured cell pellet was sent to PamGene. […] Protein concentration was measured using standard Bradford assay as per PamGene SOPs. […]"}},
  "note": "Several values for one entry are separate records, joined by “and”; a condition that tells them apart may be missing. Equal values may be shown once.",
  "data": [
    {"smiles": "O=C(Cc1ccc(NC(=O)c2cccc(Cl)c2)cc1)NCc1ccccc1", "note": "[Compound 4e, N-(4-(2-(benzylamino)-2-oxoethyl)phenyl)-3-chlorobenzamide]", "values": [
      {"measurement": "phosphokinase signal after 4e exposure, CREB", "setting": "CREB; HL60 cell lysate, treated", "result": 682.43},
      {"measurement": "Change in Signal, CREB", "setting": "CREB; treated vs untreated HL60", "result": 42.08},
      {"measurement": "% Change, CREB", "setting": "CREB; treated vs untreated HL60, Ser133", "result": "6.57% and ~ 6%"},
      {"measurement": "Mean Final Score", "setting": "Etk/BMX", "result": 1.7640},
      {"measurement": "Mean Kinase Statistic", "setting": "Etk/BMX", "result": -0.5143},
      {"measurement": "Mean Significance Score", "setting": "Etk/BMX", "result": 1.3079},
      {"measurement": "Mean Specificity Score", "setting": "Etk/BMX", "result": 0.4561},
      {"measurement": "increased phosphorylation of Akt1/2/3 at Thr308 and Ser473 compared to control", "setting": "AKT 1/2/3; HL60, versus no treatment", "result": "> 117", "unit": "fold"},
      {"measurement": "phosphokinase signal after 4e exposure, AKT 1/2/3", "setting": "AKT 1/2/3; HL60 cell lysate, treated", "result": 22.29},
      {"measurement": "% Change, AKT 1/2/3", "setting": "AKT 1/2/3; treated vs untreated HL60", "result": 11783.08, "unit": "%"},
      {"measurement": "Change in Signal, AKT 1/2/3", "setting": "AKT 1/2/3; treated vs untreated HL60", "result": 22.10},
      {"measurement": "Mean Final Score", "setting": "TEC", "result": 1.9733},
      {"measurement": "Mean Kinase Statistic", "setting": "TEC", "result": -0.5256},
      {"measurement": "Mean Significance Score", "setting": "TEC", "result": 1.3350},
      {"measurement": "Mean Specificity Score", "setting": "TEC", "result": 0.6383},
      {"measurement": "Mean Final Score", "setting": "Blk", "result": 0.7362},
      {"measurement": "Mean Kinase Statistic", "setting": "Blk", "result": -0.3552},
      {"measurement": "Mean Significance Score", "setting": "Blk", "result": 0.6625},
      {"measurement": "Mean Specificity Score", "setting": "Blk", "result": 0.0736}
    ]}
  ]
}
